How the values were obtained:
Type in all cases: in vivo
[1] = test system: Davidia involucrata winter buds; assay: disinfecting and sterilizing of the winter buds
Protocol: disinfecting and sterilizing of the winter buds: immersing the plurality of winter buds collected in the field into a detergent solution with a concentration of […] for 2 minutes, gently cleaning the bud scales using a soft brush, rinsing for 2 hours with running water, and then immersing the winter buds using the 0.1% mercuric chloride solution for 20 minutes on a clean bench, rinsing with sterile water for more than 5 times, blotting up the water on the surface of the explants with sterile filter paper, stripping up all the scales of the winter buds using a tweezer to obtain the buds, treating with 75% ethanol and mercuric chloride solution or treating with mercuric chloride solution only. Wherein each treatment is inoculated into 30 bottles and 2 explants in each bottle. The specific progress is as follows: […]

[2] = test system: Davidia involucrata saplings; assay: cultivating the strong seedlings; parameters: unit not given here; conditions: for K1: mean average height at level 1 of the factor (GA3 0.5, NAA 0.5, 6-BA 0.2); for K2: mean average height at level 2 of the factor (GA3 1.0, NAA 1.0, 6-BA 0.6); for K3: mean average height at level 3 of the factor (GA3 1.5, NAA 1.5, 6-BA 1.0); for R: range of K values of the factor, average height
Protocol: inoculating the plurality of Davidia involucrata saplings obtained in step (4) in nine groups of WPM medium (See Table 8) containing different concentrations of NAA, 6-BA and GA3 at the temperature of 24±1° C. and illuminating for 10 hours per day at 2000 1× to cultivate the plurality of Davidia involucrata saplings obtained in step (4) for 36 days. The amount of AC added for each group of WPM medium is 1.0 g/L. Calculating the average height of the saplings (See Table 9).

[3] = test system: Davidia involucrata saplings; assay: rooting cultivation (orthogonal experiment); parameters: unit not given here; conditions: for K1: mean rooting ratio at level 1 of the factor (¼MS, IBA 1.0, 6-BA 0, AC 0.5); for K2: mean rooting ratio at level 2 of the factor (WPM, IBA 2.0, 6-BA 1.0, AC 1.0); for K3: mean rooting ratio at level 3 of the factor (White, IBA 3.0, 6-BA 1.5, AC 1.5); for R: range of K values of the factor, rooting ratio
Protocol: inoculating the plurality of Davidia involucrata saplings in good condition obtained in step (5) in the White, WPM and 1/4 MS medium (See Table 10) containing different concentrations of IBA, 6-BA and AC at the temperature of 24±1° C. and illuminating for 10 hours per day at 2000 1× to cultivate the plurality of Davidia involucrata saplings in good condition obtained in step (5) until rooting. Analyzing the rooting results (See Table 11).

[4] = Disposal 1: mercuric chloride only, treating time 4 min
[5] = Disposal 2: mercuric chloride only, treating time 5 min
[6] = Disposal 3: mercuric chloride only, treating time 6 min
[7] = Disposal 4: mercuric chloride only, treating time 7 min
[8] = Disposal 5: mercuric chloride only, treating time 8 min

| Compound | K1 [2] | K2 [2] | K3 [2] | R [2] | K1 [3] | K2 [3] | K3 [3] | R [3] | further results |
| --- | --- | --- | --- | --- | --- | --- | --- | --- | --- |
| [Cl][Hg][Cl] [0.01% mercuric chloride solution, mercuric chloride] | – | – | – | – | – | – | – | – | Death rate (%) [1, 4]: 3%; Pollution rate (%) [1, 4]: 38%; Death rate (%) [1, 5]: 5%; Pollution rate (%) [1, 5]: 27.2%; Death rate (%) [1, 6]: 6%; Pollution rate (%) [1, 6]: 18%; Death rate (%) [1, 7]: 36%; Pollution rate (%) [1, 7]: 16%; Death rate (%) [1, 8]: 45%; Pollution rate (%) [1, 8]: 10% |
| c1ccc(CNc2ncnc3[nH]cnc23)cc1 [6-BA] | 1.820 | 1.697 | 1.897 | 0.200 | 48.340 | 67.907 | 57.150 | 19.567 | – |
| C=C1C[C@]23C[C@@]1(O)CC[C@H]2[C@@]12C=C[C@H](O)[C@@](C)(C(=O)O1)[C@H]2[C@@H]3C(=O)O [GA3] | 1.663 | 2.037 | 1.713 | 0.374 | – | – | – | – | – |
| O=C(O)CCCc1c[nH]c2ccccc12 [IBA] | – | – | – | – | 55.663 | 62.337 | 55.397 | 6.940 | – |
| O=C(O)Cc1cccc2ccccc12 [NAA] | 1.537 | 2.067 | 1.810 | 0.530 | – | – | – | – | – |

From patent publication US10624278B2, “Cultivation method for the rapid propagation of Davidia involucrata winter buds” (Mianyang Teachers' College, priority 2017, dated 2020)
